Assay results taken from patent US10322110B2, “Imidazole-based antimicrobial agents” (priority 2014, dated 2019).
In brackets after ≈: the same amount, converted by molar mass. Read-outs that look alike come from different tables or passages of the source.

Tests used:
Assay type in all cases: cell-based
[1] = system: Human hepatocytes (HepaRG cells); assay: human cytotoxicity assay in vitro (CellTiter-Glo), hepatocytes; details: cytotoxicity class
[2] = system: Staphylococcus aureus MSSA (Newman); assay: broth microdilution MIC assay, Staphylococcus aureus MSSA (Newman); details: for MIC: Staphylococcus aureus; for Antibacterial activity Staphylococcus aureus (MSSA): MIC100 class score, broth microdilution
[3] = system: Staphylococcus aureus MRSA (COL); assay: broth microdilution MIC assay, Staphylococcus aureus MRSA (COL); details: for MIC: Staphylococcus aureus, MRSA; for Antibacterial activity Staphylococcus aureus (MRSA): MIC100 class score, broth microdilution
[4] = system: Streptococcus pneumoniae (Chester, ATCC49619); assay: broth microdilution MIC assay, Streptococcus pneumoniae; details: MIC100 class score, 24 h
[5] = system: penicillin-, erythromycin- and tetracycline-resistant Streptococcus pneumoniae (ATCC 700677), ARSP; assay: microbe, parasite or virus in culture
[6] = system: Bacillus subtilis (Marburg strain, ATCC6051); assay: microbe, parasite or virus in culture; details: ATCC6051, read-out: Antibacterial activity BS (Bacillus substilis)
[7] = system: Staphylococcus epidermidis (PCI 1200, ATCC12228); assay: broth microdilution MIC assay, Staphylococcus epidermidis; details: ATCC12228, read-out: Antibacterial activity SE (Staphylococcus epidermidis)
[8] = 24 h, read-out: Antibacterial activity Staphylococcus aureus (MSSA)
[9] = read-out: Antibacterial activity MSSA (Staphylococcus aureus MSSA)
[10] = 24 h, read-out: Antibacterial activity Staphylococcus aureus (MRSA)
[11] = read-out: Antibacterial activity MRSA (Staphylococcus aureus MRSA)
[12] = ATCC700677, MIC activity class, read-out: Antibacterial activity ARSP (multi-drug resistant-SP)
[13] = ATCC700677, read-out: Antibacterial activity ARSP (multi-drug resistant-SP)

| SMILES | cytotoxicity cell line H (hepatocytes) [1] | MIC [2, 8] [µg/mL] | MIC [2, 9] [µg/mL] | MIC [3, 10] [µg/mL] | MIC [3, 11] [µg/mL] | Antibacterial activity Streptococcus pneumoniae [4] | MIC [5, 12] [µg/mL] | MIC [6] [µg/mL] | MIC [5, 13] [µg/mL] | Antibacterial activity Staphylococcus aureus (MSSA) ([2]; 24 h) | MIC [7] [µg/mL] | Antibacterial activity Staphylococcus aureus (MRSA) ([3]; 24 h) |
| --- | --- | --- | --- | --- | --- | --- | --- | --- | --- | --- | --- | --- |
| CCc1ccc(-c2ccc(-c3nc(-c4ccccc4)c(C)[nH]3)o2)cc1 [Compound 53] | 3 | 3 to 10 (≈ 9.13 to 30.4 µM) | 3 to 10 (≈ 9.13 to 30.4 µM) | 20 to 50 (≈ 60.9 to 152 µM) | 20 to 50 (≈ 60.9 to 152 µM) |  |  |  |  |  |  |  |
| Cc1[nH]c(-c2cc(C)n(-c3ccc(F)cc3F)c2C)nc1-c1ccccc1 [Compound 9] | 3 |  |  |  | 20 to 50 (≈ 55 to 138 µM) | 2 (MIC100 of 6-10 μg/ml) |  |  |  |  |  |  |
| Cc1[nH]c(-c2ccc(-c3cccc(Cl)c3Cl)o2)nc1-c1ccccc1 [Compound 2] | 2 | 20 to 50 (≈ 54.2 to 135 µM) | 20 to 50 (≈ 54.2 to 135 µM) |  |  |  | 2 to 5 (≈ 5.42 to 13.5 µM) | 20 to 50 (≈ 54.2 to 135 µM) |  |  |  |  |
| Cc1[nH]c(-c2ccc(-c3ccc(C(F)(F)F)cc3)s2)nc1-c1ccccc1 [Compound 46] |  |  | 11 to 201 (≈ 28.6 to 523 µM) |  |  | 3 (MIC100 of 2-5 μg/ml) |  |  | 2 to 5 (≈ 5.2 to 13 µM) | 2 (MIC100 of 11-201 μg/ml) |  |  |
| Cc1nc(-c2ccc(-c3cc(C(F)(F)F)cc(C(F)(F)F)c3)o2)[nH]c1-c1ccccc1 [Compound 35] |  | 3 to 10 (≈ 6.88 to 22.9 µM) | 3 to 10 (≈ 6.88 to 22.9 µM) | 20 to 50 (≈ 45.8 to 115 µM) | 20 to 50 (≈ 45.8 to 115 µM) |  | 6 to 10 (≈ 13.8 to 22.9 µM) | 3 to 10 (≈ 6.88 to 22.9 µM) |  |  | 20 to 50 (≈ 45.8 to 115 µM) |  |
| Cc1[nH]c(-c2ccc(-c3ccccc3C(F)(F)F)o2)nc1-c1ccccc1 [Compound 17] | 3 | 3 to 10 (≈ 8.14 to 27.1 µM) | 3 to 10 (≈ 8.14 to 27.1 µM) | 1 to 3 (≈ 2.71 to 8.14 µM) | 1 to 3 (≈ 2.71 to 8.14 µM) |  |  | 1 to 3 (≈ 2.71 to 8.14 µM) |  |  | 20 to 50 (≈ 54.3 to 136 µM) |  |
| Cc1nc(-c2ccc(-c3ccc(Cl)c(OC(F)(F)F)c3)o2)[nH]c1-c1ccc(Cl)cc1 [Compound 44] | 2 |  | 1 to 3 (≈ 2.21 to 6.62 µM) |  | 11 to 201 (≈ 24.3 to 443 µM) |  |  | 1 to 3 (≈ 2.21 to 6.62 µM) |  |  | 11 to 201 (≈ 24.3 to 443 µM) | 2 (MIC100 of 11-201 μg/ml) |
| FC(F)(F)c1ccccc1-c1ccc(-c2nc(Cl)c(-c3ccccc3)[nH]2)o1 [Compound 65] | 2 |  | 11 to 201 (≈ 28.3 to 517 µM) |  |  |  |  |  |  | 2 (MIC100 of 11-201 μg/ml) |  |  |
| Cc1[nH]c(-c2ccc(-c3ccc(OC(F)(F)F)c(Cl)c3)o2)nc1-c1ccc(Cl)cc1 [Compound 50] |  | 3 to 10 (≈ 6.62 to 22.1 µM) | 3 to 10 (≈ 6.62 to 22.1 µM) | 11 to 201 (≈ 24.3 to 443 µM) | 11 to 201 (≈ 24.3 to 443 µM) |  |  |  |  |  | 20 to 50 (≈ 44.1 to 110 µM) |  |
| FC(F)(F)Oc1ccccc1-c1ccc(-c2ncc(-c3ccccc3)[nH]2)o1 [Compound 63] | 2 |  | 3 to 10 (≈ 8.1 to 27 µM) |  | 3 to 10 (≈ 8.1 to 27 µM) | 3 (MIC100 of 2-5 μg/ml) |  |  |  | 3 (MIC100 of 3-10 μg/ml) | 3 to 10 (≈ 8.1 to 27 µM) |  |
| Cc1[nH]c(-c2cc(C)n(-c3ccc(Cl)cc3)c2C)nc1-c1ccccc1 [Compound 8] | 2 |  |  |  | 20 to 50 (≈ 55.3 to 138 µM) | 3 (MIC100 of 2-5 μg/ml) |  |  |  |  |  |  |
| Cc1nc(-c2ccc(-c3ccc(Cl)cc3)o2)[nH]c1-c1ccccc1 [Compound 5] | 2 | 1 to 3 (≈ 2.99 to 8.96 µM) | 1 to 3 (≈ 2.99 to 8.96 µM) | 3 to 10 (≈ 8.96 to 29.9 µM) | 3 to 10 (≈ 8.96 to 29.9 µM) |  |  |  |  |  | 3 to 10 (≈ 8.96 to 29.9 µM) |  |
| CCCc1[nH]c(-c2ccc(-c3ccc(O)cc3C(F)(F)F)o2)nc1C [Compound 110] |  |  |  |  |  | 3 (MIC100 of 2-5 μg/ml) |  |  |  |  |  | 3 (MIC100 of 3-10 μg/ml) |
| Cc1[nH]c(-c2cc(C)n(-c3ccc(F)c(F)c3F)c2C)nc1-c1ccccc1 [Compound 10] | 3 |  |  |  |  | 2 (MIC100 of 6-10 μg/ml) |  |  |  |  |  |  |
| Cc1cccc(C)c1-c1ccc(-c2nc(-c3ccccc3)c(C)[nH]2)o1 [Compound 62] | 3 |  |  |  |  |  |  |  |  |  |  |  |
| COc1ccc(-c2ccc(-c3nc(C)c(-c4ccccc4)[nH]3)o2)c(C(F)(F)F)c1 [Compound 31] | 3 | 3 to 10 (≈ 7.53 to 25.1 µM) | 3 to 10 (≈ 7.53 to 25.1 µM) | 3 to 10 (≈ 7.53 to 25.1 µM) | 3 to 10 (≈ 7.53 to 25.1 µM) |  |  |  |  |  |  |  |
| Cc1[nH]c(-c2ccc(-c3ccc(Cl)c(C(F)(F)F)c3)o2)nc1-c1ccc(F)cc1 [Compound 42] |  |  | 1 to 3 (≈ 2.38 to 7.13 µM) |  |  |  | < 1 | 1 to 3 (≈ 2.38 to 7.13 µM) |  |  | 3 to 10 (≈ 7.13 to 23.8 µM) |  |
| Cc1[nH]c(-c2cc(C)n(-c3cccc(C(F)(F)F)c3)c2C)nc1-c1ccccc1 [Compound 36] | 3 |  |  |  | 11 to 201 (≈ 27.8 to 508 µM) | 3 (MIC100 of 2-5 μg/ml) |  |  |  |  |  | 2 (MIC100 of 11-201 μg/ml) |
| Cc1nc(-c2ccc(-c3cc(F)ccc3C(F)(F)F)o2)[nH]c1-c1ccccc1 [Compound 31a] | 2 | 20 to 50 (≈ 51.8 to 129 µM) | 20 to 50 (≈ 51.8 to 129 µM) |  |  |  | 2 to 5 (≈ 5.18 to 12.9 µM) | 20 to 50 (≈ 51.8 to 129 µM) |  |  |  |  |
| Cc1[nH]c(-c2ccc(-c3cccc(C(F)(F)F)c3)o2)nc1-c1ccc(F)cc1 [Compound 38] |  |  | 1 to 3 (≈ 2.59 to 7.77 µM) |  | 1 to 3 (≈ 2.59 to 7.77 µM) | 3 (MIC100 of 2-5 μg/ml) |  |  | < 1 |  | 3 to 10 (≈ 7.77 to 25.9 µM) |  |
